In patent US8680111B2 (Pfizer Inc., priority 2012, dated 2014):

Columns and labels:
[1] = target: T1, human recombinant wild-type ALK kinase domain (amino acids 1093-1411) (Homo sapiens, UniProt Q9UM73); test: Wild-type ALK enzyme assay (microfluidic mobility shift); type: biochemical; details: ATP 60 μM, competitive inhibition fit, read-out: WT ALK enzyme assay (Ki)
T1 construct: ALK kinase domain (amino acids 1093-1411); made in house
Experimental: The reactions were incubated for 1 h at room temperature, stopped by the addition of 0.1 M EDTA, pH 8, and the extent of reactions (˜15-20% conversion with no inhibitor) was determined after electrophoretic separation of the fluorescently labeled peptide substrate and phosphorylated product on an LabChip EZ Reader II (Caliper Life Sciences, Hopkinton, Mass.).

[2] = target: T2, human recombinant L1196M ALK kinase domain (amino acids 1093-1411) (Homo sapiens, UniProt Q9UM73, L1196M); test: L1196M mutant ALK enzyme assay (microfluidic mobility shift); type: biochemical; details: ATP 60 μM, 0.5 nM enzyme, competitive inhibition fit; read-out: L1196M ALK enzyme assay (Ki)
T2 construct: ALK kinase domain (amino acids 1093-1411); made in house

[3] = target: T3, WT EML4-ALK (NIH-3T3 EML4-ALK wt v1 cells) (Homo sapiens, UniProt Q9UM73); test: Cellular phospho-ALK (Tyr1604) ELISA assay for WT EML4-ALK; type: cell-based; details: 1 hour, read-out: ELISA assay for WT EML4-ALK (IC50)
T3 construct: expressed in transfected cells; the other entry of the earlier key: EML4 (Q9HC35, Echinoderm microtubule-associated protein-like 4)
Experimental: Cellular Phospho-ALK (Tyr1604) ELISA Assay for EML4-ALK:
The cells were maintained at 37° C. in a 5% CO2 incubator in DMEM (Invitrogen, Carlsbad, Calif.) medium supplemented with 1% L-glutamine, 1% penicillin and streptomycin, 1 ug/ml puromycin and 10% new born calf serum (NCS) in T-75 flasks.
Cells were washed with PBS and re-suspended in DMEM medium supplemented with 0.5% NCS and 1% pen/strep and seeded into 96-well plates at density of 20,000 cells/well/100 μl and incubated in the incubator at 37° C. and 5% CO2. After 20 hours of incubation, 100 μl of assay media (DMEM) in presence of designated PF-compounds concentrations or controls (DMSO) were added into plates and incubated for 1 hour in the incubator. Media was then removed and lysis buffer, containing phosphatase inhibitors and phenylmethanesulfonyl fluoride (PMSF), was added to wells and shaken at 4° C. for 30 minutes to generate protein lysates.
A phospho-ALK (Tyr1604) rabbit antibody was coated onto the 96-well microplates. 50 μl of cell lysates were added to the antibody coated plate and incubated at room temperature for 2 hours. Following extensive washing with 0.1% Tween 20 in PBS to remove unbound materials, ALK mouse mAb was added to detect captured phospho-ALK (Tyr1604) and phospho-ALK fusion proteins. Anti-mouse IgG, HRP-linked antibody was then used to recognize the bound detection antibody. Finally, the chemiluminescent reagent was added and incubated for 10 minutes for signal development. The assay plates were read in the Envision plate reader in the luminescent mode. IC50 values were calculated by a concentration-response curve fitting using a four-parameter analytic method.

[4] = target: T4, L1196M EML4-ALK (NIH-3T3 EML4-ALK v1 L1196M cells) (Homo sapiens, UniProt Q9UM73, L1196M); test: Cellular phospho-ALK (Tyr1604) ELISA assay for L1196M EML4-ALK; type: cell-based; details: NIH-3T3 EML4-ALK v1 L1196M cells, 1 hour, phospho-ALK (Tyr1604); read-out: ELISA assay for L1196M EML4-ALK (IC50)
T4 construct: expressed in transfected cells; the other entry of the earlier key: EML4 (Q9HC35, Echinoderm microtubule-associated protein-like 4)

Row | Molecule | Ki [1] | Ki [2] | IC50 [3] | IC50 [4]
1 | CC1Oc2cc(cnc2N)-c2c(nn(C)c2C#N)CN(C)C(=O)c2c(F)cccc21 (single isomer, unassigned) [Example 52, 7-amino-14-fluoro-2,10,16-trimethyl-15-oxo-10,15,16,17-tetrahydro-2H-8,4-(metheno)pyrazolo[4,3-h][2,5,11]benzoxadiazacyclotetradecine-3-carbonitrile] | 1.2 nM | 10.2 nM | 4.78 nM | 296 nM
2 | CC1Cc2cc(cnc2N)-c2c(nn(C)c2C(N)=O)CN(C)C(=O)c2ccc(F)cc21 (stereo not shown) [Example 62, 7-amino-12-fluoro-2,10,16-trimethyl-15-oxo-2,9,10,15,16,17-hexahydro-8,4-(metheno)pyrazolo[3,4-d][2,8]benzodiazacyclotetradecine-3-carboxamide] | 137 nM | 253 nM | 7610 nM | > 10000 nM
3 | CCn1nnc2c1-c1cnc(N)c(c1)O[C@H](C)c1cc(F)ccc1C(=O)N(C)C2 [Example 133, (10R)-7-amino-3-ethyl-12-fluoro-10,16-dimethyl-16,17-dihydro-3H-4,8-(metheno)[1,2,3]triazolo[4,5-h][2,5,11]benzoxadiazacyclotetradecin-15(10H)-one] | 3.06 nM | 32.8 nM | 95.8 nM | 997 nM
4 | CCCn1nnc2c1-c1cnc(N)c(c1)O[C@H](C)c1cc(F)ccc1C(=O)N(C)C2 [Example 41, (10R)-7-amino-12-fluoro-10,16-dimethyl-3-propyl-16,17-dihydro-3H-8,4-(metheno)[1,2,3]triazolo[4,5-h][2,5,11]benzoxadiazacyclotetradecin-15(10H)-one] | 1.5 nM | 19 nM | 33.1 nM | 680 nM
5 | C[C@H]1Oc2cc(cnc2N)-c2c(nnn2C2CC2)CN(C)C(=O)c2ccc(F)cc21 [Example 137, (10R)-7-amino-3-cyclopropyl-12-fluoro-10,16-dimethyl-16,17-dihydro-3H-8,4-(metheno)[1,2,3]triazolo[4,5-h][2,5,11]benzoxadiazacyclotetradecin-15(10H)-one] | 6.1 nM | 72.4 nM |  | 2280 nM
6 | CN1Cc2ccccc2-c2cnc(N)c(c2)OCc2cc(F)ccc2C1=O [Example 7, 8-amino-3-fluoro-17-methyl-16,17-dihydro-7,11-(metheno)dibenzo[g,l]-[1,4,10]oxadiazacyclotetradecin-18(5H)-one] |  | 14 nM | 155 nM | 2680 nM
7 | CC1Oc2nc(cnc2N)-c2c(nn(C)c2C#N)COCc2ccc(F)cc21 (single isomer, unassigned) [Example 106, 7-amino-12-fluoro-2,10-dimethyl-2,10,15,17-tetrahydro-8,4-(azeno)pyrazolo[4,3-h][2,11,5]benzodioxazacyclotetradecine-3-carbonitrile] | > 3000 nM | > 3000 nM |  | 

Molecules with a lower Ki [2], results first:

Row | Ki [1] | Ki [2] | IC50 [3] | IC50 [4] | Molecule
8 | 2.93 nM | 9.61 nM | 40.8 nM | 350 nM | CC1c2nn(C)c(C#N)c2-c2cnc(N)c(n2)OCc2cc(F)ccc2C(=O)N1C (stereo not shown) [Example 78, 7-amino-12-fluoro-2,16,17-trimethyl-15-oxo-10,15,16,17-tetrahydro-2H-8,4-(azeno)pyrazolo[4,3-h][2,5,11]benzoxadiazacyclotetradecine-3-carbonitrile]
9 | 0.29 nM | 3.6 nM |  | 208 nM | CCc1noc2c1-c1cnc(N)c(n1)O[C@H](C)c1cc(F)ccc1C(=O)N(C)C2 [Example 47, (10R)-7-amino-3-ethyl-12-fluoro-10,16-dimethyl-16,17-dihydro-8,4-(azeno)[1,2]oxazolo[4,5-h][2,5,11]benzoxadiazacyclotetradecin-15(10H)-one]
10 | 0.34 nM | 3.4 nM | 12.1 nM | 156 nM | CN1Cc2ccc(S(C)(=O)=O)cc2-c2cnc(N)c(c2)OCc2cc(F)ccc2C1=O [Example 5, 8-amino-3-fluoro-17-methyl-13-(methylsulfonyl)-16,17-dihydro-7,11-(metheno)dibenzo[g,l][1,4,10]oxadiazacyclotetradecin-18(5H)-one]
11 | 3.1 nM | 1.9 nM | 95.6 nM | 109 nM | CC1Oc2cc(F)ccc2C(=O)N(C)Cc2nn(C)c(C#N)c2-c2cnc(N)c1c2 (single isomer, unassigned) [Example 76, 7-amino-12-fluoro-2,9,16-trimethyl-15-oxo-2,15,16,17-tetrahydro-9H-8,4-(metheno)pyrazolo[4,3-h][1,5,11]benzoxadiazacyclotetradecine-3-carbonitrile]
12 | < 0.2 nM | 0.56 nM | 0.18 nM | 2.64 nM | C[C@H]1Oc2cc(cnc2N)-c2c(nn(C)c2C#N)CN(C)Cc2ccc(F)cc21 [Example 36, (10R)-7-amino-12-fluoro-2,10,16-trimethyl-10,15,16,17-tetrahydro-2H-4,8-(metheno)pyrazolo[4,3-h][2,5,11]benzoxadiazacyclotetradecine-3-carbonitrile]
13 | 0.059 nM | 0.54 nM | 1.42 nM | 32.5 nM | COc1noc2c1-c1cnc(N)c(c1)O[C@H](C)c1cc(F)ccc1C(=O)N(C)C2 [Example 111, (10R)-7-amino-12-fluoro-3-methoxy-10,16-dimethyl-16,17-dihydro-8,4-(metheno)[1,2]oxazolo[4,5-h][2,5,11]benzoxadiazacyclotetradecin-15(10H)-one]
14 | 0.099 nM | 0.52 nM | 2.5 nM | 65 nM | CN1Cc2c(c(C#N)nn2C)-c2cnc(N)c(n2)OC(CF)c2ccccc2C1=O (single isomer, unassigned) [Example 127]
15 | 0.11 nM | 0.49 nM | 2.3 nM | 49.1 nM | 7-amino-12-fluoro-3-methoxy-1,16,17-trimethyl-16,17-dihydro-1H-8,4-(azeno)pyrazolo[4,3-h][2,5,11]benzoxadiazacyclotetradecin-15(10H)-one [Example 125]
16 | < 0.2 nM | 0.29 nM | 0.77 nM | 10.1 nM | CCC1Oc2cc(cnc2N)-c2c(OC)nn(C)c2CN(C)C(=O)c2ccc(F)cc21 (single isomer, unassigned) [Example 23, 7-amino-10-ethyl-12-fluoro-3-methoxy-1,16-dimethyl-16,17-dihydro-1H-8,4-(metheno)pyrazolo[4,3-h][2,5,11]benzoxadiazacyclotetradecin-15(10H)-one]
17 | < 0.2 nM | 0.2 nM | 0.99 nM | 22.2 nM | COc1snc2c1-c1cnc(N)c(c1)O[C@H](C)c1cc(F)ccc1C(=O)N(C)C2 [Example 3, (10R)-7-amino-12-fluoro-3-methoxy-10,16-dimethyl-16,17-dihydro-8,4-(metheno)isothiazolo[4,3-h][2,5,11]benzoxadiazacyclotetradecin-15(10H)-one]
18 | 0.065 nM | 0.095 nM | 0.902 nM | 7.06 nM | CC1Oc2nc(cnc2N)-c2c(C#N)nn3c2C(CC3)N(C)C(=O)c2ccc(F)cc21 [Example 75, (9R)-6-amino-11-fluoro-9,15-dimethyl-14-oxo-9,14,15,15a,16,17-hexahydro-7,3-(azeno)-8-oxa-1,5,15,17a-tetraazabenzo[11,12]cyclotetradeca[1,2,3-cd]pentalene-2-carbonitrile]
